Columns and labels:
[1] = molar heat capacity at constant pressure; conditions: 101.33 kPa, Vacuum adiabatic calorimetry
[2] = Crystal; Adiabatic calorimetry
[3] = Molar enthalpy of transition or fusion; conditions: Crystal; Adiabatic calorimetry

O=C(N[C@@H](Cc1ccccc1)C(=O)O)OCc1ccccc1 [((benzyloxy)carbonyl)-L-phenylalanine]
[1]
Conditions	molar heat capacity at constant pressure [J/K/mol]
79.13 K, Crystal	109.2
81.17 K, Crystal	111.4
84.32 K, Crystal	114.7
87.26 K, Crystal	119.7
90.2 K, Crystal	124.4
93.15 K, Crystal	128
96.1 K, Crystal	130.2
99.05 K, Crystal	132.6
103.16 K, Crystal	135.7
107.22 K, Crystal	140.4
110.14 K, Crystal	143.8
113.08 K, Crystal	146.3
116.03 K, Crystal	149.3
119 K, Crystal	150.1
121.92 K, Crystal	156.4
124.86 K, Crystal	158.7
127.83 K, Crystal	160.7
130.81 K, Crystal	161.9
133.81 K, Crystal	165.1
136.78 K, Crystal	168.9
139.76 K, Crystal	171.3
142.78 K, Crystal	172.5
145.75 K, Crystal	176.2
148.7 K, Crystal	181.2
152.53 K, Crystal	181.4
156.3 K, Crystal	185.2
159.2 K, Crystal	189.8
162.16 K, Crystal	191.9
165.09 K, Crystal	194.2
168.09 K, Crystal	197.5
171.13 K, Crystal	198.8
174.16 K, Crystal	201.1
177.16 K, Crystal	206.1
180.14 K, Crystal	209.9
183.11 K, Crystal	211.4
186.05 K, Crystal	211.8
188.97 K, Crystal	218.1
191.95 K, Crystal	219.3
194.98 K, Crystal	223
198 K, Crystal	226.3
201 K, Crystal	229.2
204.65 K, Crystal	233.5
208.28 K, Crystal	236.2
211.23 K, Crystal	238.9
214.17 K, Crystal	242
217.09 K, Crystal	248.7
220 K, Crystal	250.5
222.89 K, Crystal	252.5
225.77 K, Crystal	254.9
228.72 K, Crystal	256.4
231.73 K, Crystal	258
234.73 K, Crystal	260.1
237.77 K, Crystal	264.5
240.78 K, Crystal	266.6
244.33 K, Crystal	268.1
247.89 K, Crystal	270.2
250.89 K, Crystal	273.1
253.88 K, Crystal	277.4
256.87 K, Crystal	280.9
259.83 K, Crystal	282.4
262.79 K, Crystal	286.2
265.74 K, Crystal	290.4
268.67 K, Crystal	292.7
271.58 K, Crystal	297.9
274.49 K, Crystal	302.3
277.38 K, Crystal	301.8
280.25 K, Crystal	307.3
283.12 K, Crystal	314.7
286.09 K, Crystal	319.9
289.05 K, Crystal	323.8
291.98 K, Crystal	326.7
295.01 K, Crystal	330.1
298.06 K, Crystal	333
301.11 K, Crystal	336.5
304.15 K, Crystal	339.5
307.19 K, Crystal	340.6
310.22 K, Crystal	343.9
313.24 K, Crystal	348.3
316.26 K, Crystal	351.4
319.27 K, Crystal	353.7
322.27 K, Crystal	358.3
325.27 K, Crystal	362.5
328.25 K, Crystal	367.6
331.24 K, Crystal	371.4
334.21 K, Crystal	375.1
337.17 K, Crystal	380.6
340.13 K, Crystal	389.8
343.07 K, Crystal	396.6
345.97 K, Crystal	418.3
348.88 K, Crystal	508.8
361.43 K, Liquid	549.6
364.56 K, Liquid	551.9
367.7 K, Liquid	552.7
370.83 K, Liquid	553.6
373.95 K, Liquid	554.9
377.05 K, Liquid	555.6
380.13 K, Liquid	557.1
383.21 K, Liquid	558.5
386.33 K, Liquid	560.8
389.43 K, Liquid	562.4
392.55 K, Liquid	563.6
395.55 K, Liquid	564.8

Conditions	Molar enthalpy of transition or fusion [kJ/mol]	Triple point temperature [K]
[2]	–	359.48
[3]	31.79	–

— the NIST ThermoML archive (doi:10.1021/je1004092)
